Assay results taken from ChEMBL document CHEMBL3745675, “Design and optimization of selective azaindole amide M1 positive allosteric modulators” (Bioorg Med Chem Lett, 2016).

Key:
[1] = Permeability in RRCK cells; assay type: ADME, cell-based, Canis lupus familiaris, MDCKII-LE; details: dog, MDCK; read-out: permeability
[2] = Ratio of unbound AUC in brain to plasma in C57BL/6j mouse; assay type: ADME, organism-based; details: read-out: Ratio AUC
[3] = tested on: Plasma; test: Fraction unbound in C57BL/6j mouse plasma; assay type: ADME, cell-free

SMILES | Papp [1] [×10⁻⁶ cm/s] | Kp uu [2] | Cp(f) [3] [nM]
O=C(N[C@H]1CCOC[C@@H]1O)c1cn(Cc2ccc(-n3cccn3)cc2)c2cccnc12 | 21.7 | 0.04 | 0.13
O=C(N[C@H]1CCOC[C@@H]1O)c1cn(Cc2ccc(-c3cc[nH]n3)cc2)c2cccnc12 | 14 |  | 
